This is an account of results in patent US11274332B2, “Methods of administering 3,4-diaminopyridine” (SERB SA, priority 2011, dated 2022).

The series can be described thus: Bioavailability/bioequivalence study of 3,4-DAP phosphate salt vs free base in healthy subjects (Example A). Type of series: in vivo, human. The method, then:
The primary objectives of the study were to evaluate the clinical tolerance of a single 10 mg dose (equivalent base) oral intake of 3,4-DAP salt in five healthy subjects and to determine the relative bioequivalence of a single 20 mg oral dose of 3,4-DAP administered as a salt or as a free base to 26 healthy subjects. The secondary objectives were to study pharmacokinetic parameters (elimination half and elimination constant), to compare the biological tolerance of both a 20 mg oral intake of 3,4-DAP as a free base and as a salt, and to measure QTcf intervals at expected Cmax.
This was an open and uncontrolled study of the clinical tolerance to a low dose of the phosphate salt. Subjects were hospitalized from 8 am to 4 pm after fasting since midnight the previous night. At 8:30 am, one 10 mg 3,4-DAP phosphate tablet was administered with a glass of water in the presence of a supervising nurse. During their 8-hour stay, heart rate was continuously monitored, blood pressure was measured on eight occasions (including baseline) and three urine samples were taken.
This was a double-blind, randomized 2-way cross-over trial. The two administration periods were separated by a wash-out of at least 3 days and not more than 10 days. At the beginning of each period, subjects were hospitalized at 8 am (while fasting since midnight) for at least 12 hours. At their arrival a urinary sample was taken and avenous catheter was inserted into an antecubital vein. A first blood sample was drawn 15 min before drug intake. At around 8:30 am drug was administered (as the phosphate salt or free base according to randomization) with a glass of water under the supervision of a nurse and subjects remained seated for 15 min. Group A received two 10 mg tablets of 3,4-DAP phosphate. Group B received two 10 mg capsules of 3,4-DAP as a free base.
Two 5 mL blood samples were drawn at the following times after drug administration: 5 min, 10 min, 15 min, 20 min, 30 min, 45 min, 60 min, 75 min, 90 min, 120 min, 240 min, 360 min, 480 min, and 660 min. At each sampling time two 5 mL samples were drawn on […] heparinized tubes. They were immediately centrifuged at room temperature. Serum was then separated and dispatched into three clearly identified aliquots which were frozen at −20° C. […]
12-lead ECGs (50 mm/s, 2 cm/mV) were recorded over 1 minute three times prior to drug intake (HR-RR, QT and QTcf were averaged to determine baseline values) and then at 15, 20, 30, 45, 60, 75, 90, 120, and 240 min post dose. ECG parameters were recorded by using Cardionics™ ECG/VCG software (version 3.3.0). Blood pressure was measured at 120 min post dosing. […]
An HPLC-electrochemical detection system was used to assay 3,4-DAP in serum samples. […] The extracted sample was analyzed by HPLC coupled with coulemetric detection. […]

Each structure is given as a SMILES string.

As usually defined, the Cmax is the highest concentration seen after dosing. One may read the half-life as the time needed for the level to fall by half in the phase considered. In the case of `Nc1ccncc1N` [3,4-DAP, 3,4-diaminopyridine], the “differences in Cmax, AUC and t1/2 between subjects” value (between patients) was “up to 10 fold”. The Cmax (human, serum, as the phosphate salt, 20 mg oral, read-out: Cmax, range between patients) fell in the range of 13 to 167 ng/mL. In addition, the half-life (human, serum, phosphate salt or free base, 20 mg oral) was less than 2.6 h. The “coefficient of variations for AUCs and Cmax” value (phosphate salt or free base, 20 mg oral) is on record as “exceeding 30%”.
